Where a name gives a salt, the structure may show the parent alone.
Columns and labels:
Dopamine D2 receptor = target: T1, Dopamine D2 receptor (Rattus norvegicus, UniProt P61169); assay: Dopamine D2 receptor binding assay ([3H]-raclopride); settings: Dopamine D2 receptor binding test, rat corpus striatum membrane, Ki calculated from IC50 by Cheng-Prussoff formula
T1 construct: from tissue; host or cells: Wistar rat brain, corpus striatum membranes
Protocol: 1) Dopamine D2 Receptor Binding Assay
The assay was performed according to the method by Kohler et al. (Kohler C, Hall H, Ogren S O and Gawell L, Specific in vitro and in vivo binding of 3H-raclopride. A potent substituted benzamide drug with high affinity for dopamine D-2 receptors in the rat brain. Biochem. Pharmacol., 1985; 34: 2251-2259).
Wistar male rats were decapitated, the brain was retrieved immediately and corpus striatum was taken out. It was homogenized in 50 mM tris(hydroxymethyl)aminomethane (Tris)-hydrochloric acid buffer (pH 7.4) of a volume 50 times of the weight of the tissue using a homogenizer with a high-speed rotating blade, and centrifuged at 4° C., 48,000×g for 10 minutes. The obtained precipitate was suspended again in the above-described buffer of a volume 50 times of the weight of the tissue and after incubated at 37° C. for 10 minutes, centrifuged in the above-described condition. The obtained precipitate was suspended in 50 mM (Tris)-hydrochloric acid buffer (containing 120 mM NaCl, 5 mM KCl, 2 mM CaCl2, 1 mM MgCl2, pH 7.4) of a volume 25 times of the weight of the tissue and preserved by freezing at −85° C. till it was used for binding assay as a membrane specimen.
The binding assay was performed using 40 μl of the membrane specimen, 20 μl of [^3H]-raclopride (final concentration 1 to 2 nM), 20 μl of a test drug and 50 mM Tris-hydrochloric acid buffer (containing 120 mM NaCl, 5 mM KCl, 2 mM CaCl2, 1 mM MgCl2, pH 7.4) so that the total amount was 200 μl (final dimethylsulfoxide concentration 1%). The reaction was performed at room temperature for 1 hour and terminated by conducting suction filtration with a cell harvester on a glass fiber filter plate. The filter plate made of glass fiber was washed with 50 mM Tris-hydrochloric acid buffer (pH 7.4), and after dried, a microplate liquid scintillation cocktail was added and the radioactivity was measured with a microplate scintillation counter. Radioactivity in the presence of 10 μM (+)-butaclamol hydrochloride was assumed as nonspecific binding.
(§1) IC50 value was calculated from concentration-dependent reaction using a non-linear analysis program. Ki value was calculated from IC50 value using Cheng-Prussoff formula.

[1] = target: T2, Serotonin 5-HT2A receptor (Rattus norvegicus, UniProt P14842); assay: Serotonin 5-HT2A receptor binding assay ([3H]-Ketanserin); settings: Serotonin 5-HT2A receptor binding test, rat frontal cortex membrane, Ki calculated from IC50 by Cheng-Prussoff formula
T2 construct: from tissue; host or cells: Wistar rat brain, frontal cortex membranes
Protocol: 2) Serotonin 5-HT2A Receptor Binding Assay
The assay was performed according to the method by Leysen J E et al. (Leysen J E, Niemegeers C J E, Van Nueten J M and Laduron P M. [3H] Ketanserin (R 41 468), a selective 3H-ligand for serotonin 2 receptor binding sites. Mol. Pharmacol., 1982, 21: 301-314).
Wistar male rats were decapitated, the brain was retrieved immediately and frontal cortex was taken out. It was homogenized in 0.25 M sucrose of a volume 10 times of the weight of the tissue using a Teflon glass homogenizer, and centrifuged at 4° C., 1,000×g for 10 minutes. The obtained supernatant was transferred to another centrifuge tube and suspended in 0.25 M sucrose of a volume 5 times of the weight of the tissue and the precipitate was centrifuged in the above-described condition. The obtained supernatant was combined with the supernatant obtained above and adjusted to a volume 40 times of the weight of the tissue with 50 mM Tris-hydrochloric acid buffer (pH 7.4), and centrifuged at 4° C., 35,000×g for 10 minutes. The obtained precipitate was suspended again in the above-described buffer of a volume 40 times of the weight of the tissue and centrifuged in the above-described condition. The obtained precipitate was suspended in the above-described buffer of a volume 20 times of the weight of the tissue and preserved by freezing at −85° C. till it was used for binding assay as a membrane specimen.
The binding assay was performed using 40 μl of the membrane specimen, 20 μl of [^3H]-Ketanserin (final concentration 1 to 3 nM), 20 μl of a test drug and 50 mM Tris-hydrochloric acid buffer (pH 7.4) so that the total amount was 200 μl (final dimethylsulfoxide concentration 1%). The reaction was performed at 37° C. for 20 minutes and terminated by conducting suction filtration with a cell harvester on a glass fiber filter plate.
The filter plate made of glass fiber was washed with 50 mM Tris-hydrochloric acid buffer (pH 7.4), and after dried, a microplate liquid scintillation cocktail was added and the radioactivity was measured with a microplate scintillation counter. Radioactivity in the presence of 10 μM spiperone was assumed as nonspecific binding.
as §1

T2 sequence (P14842 whole entry): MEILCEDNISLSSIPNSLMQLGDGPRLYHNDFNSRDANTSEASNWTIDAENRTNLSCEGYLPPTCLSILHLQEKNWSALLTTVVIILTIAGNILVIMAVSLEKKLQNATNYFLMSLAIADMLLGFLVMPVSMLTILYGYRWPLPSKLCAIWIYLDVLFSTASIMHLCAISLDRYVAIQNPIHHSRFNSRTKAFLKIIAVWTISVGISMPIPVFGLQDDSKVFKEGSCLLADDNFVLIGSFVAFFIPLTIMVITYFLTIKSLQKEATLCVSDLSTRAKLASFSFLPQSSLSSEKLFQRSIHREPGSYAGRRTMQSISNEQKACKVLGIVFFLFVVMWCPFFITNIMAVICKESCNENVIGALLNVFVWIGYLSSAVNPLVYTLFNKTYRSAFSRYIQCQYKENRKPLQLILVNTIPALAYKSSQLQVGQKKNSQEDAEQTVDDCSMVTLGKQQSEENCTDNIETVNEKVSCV
T1 sequence (P61169 whole entry): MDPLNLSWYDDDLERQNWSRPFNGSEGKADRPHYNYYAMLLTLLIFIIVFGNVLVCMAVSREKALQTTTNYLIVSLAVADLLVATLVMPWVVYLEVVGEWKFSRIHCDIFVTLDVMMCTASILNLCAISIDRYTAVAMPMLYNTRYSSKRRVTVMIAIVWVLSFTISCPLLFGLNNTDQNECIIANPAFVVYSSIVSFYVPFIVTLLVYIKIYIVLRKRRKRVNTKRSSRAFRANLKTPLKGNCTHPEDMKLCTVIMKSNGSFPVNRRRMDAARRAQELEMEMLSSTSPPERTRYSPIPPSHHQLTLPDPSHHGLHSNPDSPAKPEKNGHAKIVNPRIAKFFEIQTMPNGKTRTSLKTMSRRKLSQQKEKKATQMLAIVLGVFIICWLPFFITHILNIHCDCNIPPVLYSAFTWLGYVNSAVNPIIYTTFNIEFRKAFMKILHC

| Ki (Dopamine D2 receptor) [nM] | Ki [1] [nM] | melting point | SMILES |
| --- | --- | --- | --- |
| 1.9 | 4.8 | 149.5 to 150.5 °C | NC(=O)Cc1ccc(OCCCN2CCN(c3cccc4sccc34)CC2)cc1 [Example 340] |
| 3.8 | 4.7 | 199 to 203 °C | NS(=O)(=O)c1ccc(OCCCN2CCN(c3cccc4sccc34)CC2)cc1 [Example 394] |
| 1.5 | 0.7 | 112.5 to 113.5 °C | CCNC(=O)Cc1ccc(OCCCN2CCN(c3cccc4sccc34)CC2)cc1 [Example 323] |
| 2.3 | 3.8 | 150 to 150.5 °C | NC(=O)c1cc(OCCCN2CCN(c3cccc4sccc34)CC2)ccn1 [Example 48] |
| 1.2 | 0.6 | 156.5 to 159 °C | NC(=O)c1ccc(F)c(OCCCN2CCN(c3cccc4sccc34)CC2)c1 [Example 271] |
| 1.1 | 2.7 | 124 to 125.5 °C | CNC(=O)c1ccc(OCCCN2CCN(c3cccc4sccc34)CC2)c(N)c1 [Example 232] |
| 1.3 | 2 | 156.5 to 158 °C | CNC(=O)c1ccc(OCCCN2CCN(c3cccc4sccc34)CC2)c(C)c1 [Example 186] |
| 0.9 | 2.6 | 150 to 151.5 °C | NC(=O)c1ccc(OCCCCN2CCN(c3cccc4sccc34)CC2)cc1 [Example 169] |
|  |  | 207.9 to 208.8 °C | Cl.c1cc(N2CCN(CCCOc3ccc4c(c3)NCCO4)CC2)c2ccsc2c1 |
|  |  | 219.5 to 222.5 °C (dec.) | CCNC(=O)c1cc(OCCCN2CCN(c3cccc4sccc34)CC2)no1 (as salt: hydrochloride) [Example 72] |
| 1 | 3.3 | 154 to 156 °C | CNC(=O)c1ccc(OCCCCN2CCN(c3cccc4sccc34)CC2)cc1 [Example 170] |
|  |  | 283 to 285 °C | CC(=O)Nc1ccc(OCCCN2CCN(c3cccc4sccc34)CC2)cc1 (as salt: hydrochloride) [Example 343] |
| 2.4 | 2 | 213.1 to 218.5 °C | O=c1[nH]cnc2ccc(OCCCN3CCN(c4cccc5sccc45)CC3)cc12 [Example 94] |
|  |  | 183 to 185 °C | c1cc(N2CCN(CCCCOc3ccncc3)CC2)c2ccsc2c1 (as salt: hydrochloride) [Example 80] |
| 1.2 | 0.6 | 162 to 163.5 °C | COc1cc(C(N)=O)ccc1OCCCN1CCN(c2cccc3sccc23)CC1 [Example 190] |
|  |  | 234 to 236 °C | Cc1ccc(OCCCN2CCN(c3cccc4sccc34)CC2)cn1 (as salt: hydrochloride) [Example 40] |
|  |  | 224 to 232 °C (dec.) | CCN(CC)CCc1ccc(OCCCN2CCN(c3cccc4sccc34)CC2)cc1 (as salt: hydrochloride) [Example 368] |
|  |  | 235.5 to 237.5 °C | CCS(=O)(=O)Nc1cc(C)c(OCCCN2CCN(c3cccc4sccc34)CC2)c(OC)c1.Cl |
|  |  | 229.5 to 232.5 °C | CCN(CC)CCNC(=O)c1ccc(OCCCN2CCN(c3cccc4sccc34)CC2)cc1 (as salt: hydrochloride) [Example 160] |
|  |  | 228 to 241 °C (dec.) | CCNCc1ccc(OCCCN2CCN(c3cccc4sccc34)CC2)cc1 (as salt: hydrochloride) [Example 286] |
|  |  | 222.4 to 223.9 °C | Cl.c1cc(N2CCN(CCCOc3ccc4c(c3)CCN4)CC2)c2ccsc2c1 |
|  |  | 174 to 176 °C | CCS(=O)(=O)Nc1ccc(OCCCN2CCN(c3cccc4sccc34)CC2)cc1 (as salt: hydrochloride) [Example 345] |

The remaining lines, values behind:

| SMILES | Ki (Dopamine D2 receptor) [nM] | Ki [1] [nM] | melting point |
| --- | --- | --- | --- |
| COc1cc(C(N)=O)cc(OC)c1OCCCN1CCN(c2cccc3sccc23)CC1 [Example 243] | 0.2 | 0.5 | 147.5 to 148 °C |
| CNC(=O)c1cc(OCCCN2CCN(c3cccc4sccc34)CC2)n(C)n1.Cl [Example 3, N-methyl-5-[3-(4-benzo[b]thiophen-4-yl-piperazin-1-yl)propoxy]-1-methyl-1H-pyrazole-3-carboxamide hydrochloride] | 1.5 | 6 | 228 to 232.5 °C (dec.) |
| COc1cc(N2CCN(C(C)=O)CC2)cc(CO)c1OCCCN1CCN(c2cccc3sccc23)CC1 (as salt: hydrochloride) [Example 1084] |  |  | 217.5 to 221 °C |
| COC(=O)N1CCN(c2cc(C=O)c(OCCCN3CCN(c4cccc5sccc45)CC3)c(OC)c2)CC1 (as salt: hydrochloride) [Example 1086] |  |  | 225 °C (dec.) |
| CNC(=O)c1csc(OCCCN2CCN(c3cccc4sccc34)CC2)n1.Cl [Example 6, N-methyl-2-[3-(4-benzo[b]thiophen-4-yl-piperazin-1-yl)propoxy]thiazole-4-carboxamide hydrochloride] | 0.7 | 3.3 | 199.5 to 202.5 °C |
| CNC(=O)c1cc(C)c(OCCCN2CCN(c3cccc4sccc34)CC2)c(OC)c1 [Example 252] | 0.3 | 0.3 | 141.5 to 142.5 °C |
| COc1cc(N2CCCC2=O)cc(CO)c1OCCCN1CCN(c2cccc3sccc23)CC1 (as salt: hydrochloride) [Example 359] |  |  | 144 to 145 °C |
| COc1cc(N2CCN(C(C)=O)CC2)cc(C)c1OCCCN1CCN(c2cccc3sccc23)CC1 (as salt: hydrochloride) [Example 1083] |  |  | 257 to 261 °C (dec.) |
| CNC(=O)c1cc(C)c(OCCCN2CCN(c3cccc4sccc34)CC2)c(C)c1 [Example 241] | 0.4 | 0.7 | 152.5 to 154.5 °C |
| COC(=O)c1cc(OCCCN2CCN(c3cccc4sccc34)CC2)n(C)n1 [Example 1, methyl 5-[3-(4-benzo[b]thiophen-4-yl-piperazin-1-yl)propoxy]-1-methyl-1H-pyrazole-3-carboxylate] |  |  | 109 to 110.5 °C |
| Cn1nc(C(=O)O)cc1OCCCN1CCN(c2cccc3sccc23)CC1 [Example 2, 5-[3-(4-benzo[b]thiophen-4-yl-piperazin-1-yl)propoxy]-1-methyl-1H-pyrazole-3-carboxylic acid] |  |  | 114.5 to 118 °C |
| COc1cc(N2CCCCC2)cc(C)c1OCCCN1CCN(c2cccc3sccc23)CC1 (as salt: hydrochloride) [Example 1089] |  |  | 248 to 251 °C (dec.) |
| CN(C)C(=O)c1csc(OCCCN2CCN(c3cccc4sccc34)CC2)n1 (as salt: hydrochloride) [Example 1113] |  |  | 178 to 182 °C |
| CCNC(=O)c1csc(OCCCN2CCN(c3cccc4sccc34)CC2)n1 (as salt: hydrochloride) [Example 73] |  |  | 151 to 153.5 °C |
| CN(C)C(=O)N1CCC(OCCCN2CCN(c3cccc4sccc34)CC2)CC1 (as salt: hydrochloride) [Example 1110] |  |  | 202 to 205 °C |
| CN(C)c1cc(OCCCCN2CCN(c3cccc4sccc34)CC2)n(C)n1 (as salt: hydrochloride) [Example 1138] |  |  | 156.5 to 158.5 °C |
| COc1cc(NC=O)cc(C)c1OCCCN1CCN(c2cccc3sccc23)CC1.Cl |  |  | 247.5 to 253 °C (dec.) |

Source: patent US8071600B2, “Derivatives of 4-piperazin-1-yl-4-benzo[B]thiophene suitable for the treatment of CNS disorders” (Otsuka Pharmaceutical Co., Ltd., priority 2005, dated 2011)
